Laboratory results taken from patent publication US20110237676A1, “SPERMICIDAL AND MICROBICIDAL COMPOSITIONS” (LEHIGH UNIVERSITY, priority 2007, published 2011).

Columns and labels:
[1] = tested on: sperm cells (whole semen); test: Sperm cell necropsy by propidium iodide (PI) staining, epifluorescence microscopy; assay type: cell-based, human
Experimental: (§1) The general experimental protocol was as follows: Whole semen, obtained from human subjects after informed consent, was treated with various concentrations of fluorous surfactants. Samples were incubated for 5-10 min at 37° C. and 5% CO2. Semen samples were diluted in an isotonic buffered human sperm medium containing glucose. Sperm motility was scored as “% motility” using differential interference microscopy (“DIC”). Cell necropsy was determined by propidium iodide (“PI”) staining, which is known to stain the DNA of dead cells, and “% death” was scored using epifluorescence microscopy (stained and unstained sperm cells were counted to obtain a live/dead ratio). Acrosome integrity was determined with epifluorescence microscopy and fluorescein-conjugated Pisum sativum agglutinin (“FITC-PSA”) staining, the staining patterns of which are known to indicate the status of the acrosomal membrane.
(§2) To validate the general experimental protocol, the motility of whole semen treated with N-9 for 5 min was determined using DIC microscopy and PI staining Results are presented in Table 1.

[2] = tested on: sperm cells (whole semen); test: Sperm motility of treated whole semen scored by differential interference microscopy (DIC); assay type: cell-based, human
Experimental: as §1, §2

[3] = tested on: Escherichia coli; test: Effects on microbes: growth inhibition of E. coli; assay type: cell-based
Excerpt: (§3) Fluorous surfactants also disrupt the membranes of pathogenic microbes, and they therefore have microbicidal activities. Preferably, they are toxic to pathogenic microorganisms, yet compatible with the flora normally found in human mucosal (e.g., vaginal) tissues. The effects of various fluorous surfactants on some laboratory models of pathogenic microorganisms (Escherichia coli, Saccharomyces cerevisiae, and Candida albicans) were studied.

[4] = tested on: acrosome of human spermatozoa; test: Acrosome integrity by FITC-PSA staining, epifluorescence microscopy; assay type: cell-based; conditions: average; for Type I: bright acrosome; for Type III: equatorial segment; for Type II: medium acrosome; for Type IV: no labeling
Experimental: as §1
Staining with fluorescein isothiocyanate Pisium sativum agglutinin (“FITC-PSA”) is known to stain components of the acrosome, and the staining pattern differs depending on the condition of the acrosomal membrane. This technique may be used to identify whether the acrosome is intact. Various patterns of fluorescence are seen after labeling of air-dried human spermatozoa with FITC lectins, including a bright acrosome (Type I), a medium acrosome (Type II), an equatorial segment (Type III), and no labeling (Type IV). See, e.g., Mortimer et al., “Specific Labelling by Peanut Agglutinin of The Outer Acrosomal Membrane of The Human Spermatozoon,” J. Reprod. Fert. 81, 127-35 (1987). Averages of FTIC-PSA results are presented in Table 6, which includes percentages of acrosomes compromised and types of sperm visualized in the control and treated samples.

[5] = tested on: Candida albicans; test: Effects on microbes: growth inhibition of Candida albicans; assay type: cell-based
Excerpt: as §3

O=S(=O)([O-])CCCOCC(F)(F)C(F)(F)F.[Na+] [F5-PS]
% Death ([1]; 6%, 5 min): 91% | % Death ([1]; 6%, 10 min): 99% | % Death ([1]; 9%, 5 min): 98% | % Death ([1]; 9%, 10 min): 96% | % Death ([1]; 12%, 5 min): 99% | % Motility ([2]; 6%, 5 min): 1% | % Motility ([2]; 9%, 5 min): 0% | % Motility ([2]; 9%, 10 min): 0% | % Motility ([2]; 12%, 5 min): 0%

OCCOCCOCCOCC(F)(F)C(F)(F)F [F5-TEG, F5-triethylene glycol]
% Death ([1]; 4%, 5 min): 100% | % Death ([1]; 5%, 5 min): 96% | % Death ([1]; 6%, 5 min): 100% | % Death ([1]; 7%, 5 min): 98% | % Death ([1]; 8%, 5 min): 99% | % Death ([1]; 9%, 5 min): 100% | % Death ([1]; 10%, 5 min): 100% | % Death ([1]; 10%, 10 min): 100% | % Death ([1]; 12%, 5 min): 96% | % Death ([1]; 15%, 5 min): 94% | % Death ([1]; 15%, 10 min): 100% | inhibition to growth of E. coli relative to non-fluorous homologs [3]: greater inhibition | inhibition of E. coli relative to F7-TEG ([3]; comparable doses): less inhibition | % Motility ([2]; 4%, 5 min): 0% | % Motility ([2]; 5%, 5 min): 0% | % Motility ([2]; 6%, 5 min): 0% | % Motility ([2]; 7%, 5 min): 0% | % Motility ([2]; 8%, 5 min): 0% | % Motility ([2]; 9%, 5 min): 0% | % Motility ([2]; 10%, 5 min): 0% | % Motility ([2]; 10%, 10 min): 0% | % Motility ([2]; 12%, 5 min): 0% | % Motility ([2]; 15%, 5 min): 0% | % Motility ([2]; 15%, 10 min): 0% | Acrosome Compromised ([4]; 5%): 95% | Acrosome Not Compromised ([4]; 5%): 5% | Type I ([4]; 5%): 5% | Type III ([4]; 5%): 3% | Type II ([4]; 5%): 28% | Type IV ([4]; 5%): 64% | Acrosome Compromised ([4]; 6%): 98% | Acrosome Not Compromised ([4]; 6%): 2% | Type I ([4]; 6%): 2% | Type III ([4]; 6%): 1% | Type II ([4]; 6%): 3% | Type IV ([4]; 6%): 93% | Acrosome Compromised ([4]; 10%): 67% | Acrosome Not Compromised ([4]; 10%): 33% | Type I ([4]; 10%): 33% | Type III ([4]; 10%): 2% | Type II ([4]; 10%): 26% | Type IV ([4]; 10%): 38% | inhibition of Candida relative to F7-TEG [5]: somewhat less inhibitory
